# Earlier results as cited in US20100028432A1, “FORMULATIONS OF ACTIVE PRINCIPLES INCORPORATED IN SLNS SUITABLE FOR TRANSDERMAL ADMINISTRATION” (NANOVECTOR S.R.L., priority 2006, published 2010).
# Legend:
# [1] = in vivo
# [2] = transdermal systems of U.S. Pat. No. 5,508,039 containing melatonin powder and an absorption enhancer; in vitro tests
# [3] = administered orally
# [4] = intravenous bolus injection
elimination time [1],half-life of melatonin [2],bioavailability [3],plasma clearance ([3]; marked first-pass hepatic metabolism),half-life [4],Compound
about 33 minutes,–,–,–,–,CN1CCc2cccc3c2[C@H]1Cc1ccc(O)c(O)c1-3 [Apomorphine]
–,≤ 2 h,low and variable bioavailability,rapid plasma clearance,around 40 minutes,"COc1ccc2[nH]cc(CCNC(C)=O)c2c1 [melatonin, N-acetyl-5-methoxytryptamine]"
